Data: US20250230193A1, “CYCLIC COMPOUND HAVING SELECTIVE KRAS INHIBITORY EFFECT ON HRAS AND NRAS” (CHUGAI SEIYAKU KABUSHIKI KAISHA, priority 2022, published 2025)

Experiments:
[1] = tested on: human lung cancer strain NCI-H441; assay: cells; conditions: NCI-H441, 96 h, read-out: NCI-H441 IC50 (nM)
[2] = target: GDP-bound NRAS wild-type protein (Homo sapiens, UniProt P01111); assay: Binding to NRAS by surface plasmon resonance (SPR), Single Cycle Kinetics; conditions: SPR; KD ratio class
[3] = target: GDP-bound HRAS wild-type protein (Homo sapiens, UniProt P01112); assay: Binding to HRAS by surface plasmon resonance (SPR), Single Cycle Kinetics; conditions: SPR; KD ratio class
Sequence of GDP-bound HRAS wild-type protein (P01112 whole entry): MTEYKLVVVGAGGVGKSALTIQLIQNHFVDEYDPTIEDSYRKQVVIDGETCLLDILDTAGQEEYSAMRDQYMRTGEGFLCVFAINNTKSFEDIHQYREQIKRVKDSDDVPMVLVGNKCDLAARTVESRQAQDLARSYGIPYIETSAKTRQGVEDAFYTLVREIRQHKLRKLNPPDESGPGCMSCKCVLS

Sequence of GDP-bound NRAS wild-type protein (P01111 whole entry): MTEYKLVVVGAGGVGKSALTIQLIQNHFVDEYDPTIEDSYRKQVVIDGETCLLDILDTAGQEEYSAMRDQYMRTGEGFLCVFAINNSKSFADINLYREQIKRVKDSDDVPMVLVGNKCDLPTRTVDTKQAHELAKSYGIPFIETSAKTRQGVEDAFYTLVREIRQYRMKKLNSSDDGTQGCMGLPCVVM

| IC50 [1] [nM] | Compound | NRAS/KRAS (ratio of KD value for GDP-bound NRAS wild-type protein to KD value for KRAS) [2] | HRAS/KRAS (ratio of KD value for GDP-bound HRAS wild-type protein to KD value for KRAS) [3] |
| --- | --- | --- | --- |
| 41.2 | CCO[C@@H]1C[C@H]2C(=O)NC3(CCC3)C(=O)N(C)[C@@H](C(CC)CC)C(=O)N(C)[C@H](C(=O)N(C)C)CC(=O)N(C)[C@@H](CC3CCCC3)C(=O)N[C@@H]([C@@H](C)CC)C(=O)N(C)CC(=O)N(C)[C@H]3C/C=C\CCN(C3=O)[C@@H](CC3CCC(F)(F)CC3)C(=O)N(C)CC(=O)N[C@@H](CCc3cc(F)c(C(F)(F)F)c(F)c3)C(=O)N2C1 [PP1431] | AA (a compound having 20 or more is denoted as AA) | A (a compound having 10 or more and less than 20 is denoted as A) |
| 51.3 | CCO[C@@H]1C[C@H]2C(=O)NC3(CCC3)C(=O)N(C)[C@@H](C(CC)CC)C(=O)N(C)[C@H](C(=O)N(C)C)CC(=O)N(C)[C@@H](CC(C)C)C(=O)N[C@@H]([C@@H](C)CC)C(=O)N(C)CC(=O)N(C)[C@H]3C/C=C\CCN(C3=O)[C@@H](CC3CCCCC3)C(=O)N(C)CC(=O)N[C@@H](CCc3cc(F)c(C(F)(F)F)c(F)c3)C(=O)N2C1 [PP1432] | AA (a compound having 20 or more is denoted as AA) | A (a compound having 10 or more and less than 20 is denoted as A) |
| 44.4 | CCO[C@@H]1C[C@H]2C(=O)NC3(CCC3)C(=O)N(C)[C@@H](C(CC)CC)C(=O)N(C)[C@H](C(=O)N(C)C)CC(=O)N(C)[C@@H](CC(C)C)C(=O)N[C@@H]([C@@H](C)CC)C(=O)N(C)CC(=O)N(C)[C@H]3C/C=C\CCN(C3=O)[C@@H](CC3CCC(F)(F)CC3)C(=O)N(C)CC(=O)N[C@@H](CCc3cc(F)c(C(F)(F)F)c(F)c3)C(=O)N2C1 [PP1433] | AA (a compound having 20 or more is denoted as AA) | A (a compound having 10 or more and less than 20 is denoted as A) |
| 112 | CCO[C@@H]1C[C@H]2C(=O)NC3(CCC3)C(=O)N(C)[C@@H](C(CC)CC)C(=O)N(C)[C@H](C(=O)N3CCCC3)CC(=O)N(C)[C@@H](C)C(=O)N[C@@H]([C@@H](C)CC)C(=O)N(C)CC(=O)N(C)[C@H]3C/C=C\CCN(C3=O)[C@@H](CC3CCCCC3)C(=O)N(C)CC(=O)N[C@@H](CCc3cc(F)c(C(F)(F)F)c(F)c3)C(=O)N2C1 [PP1434] | A (a compound having 10 or more and less than 20 is denoted as A) | A (a compound having 10 or more and less than 20 is denoted as A) |
| 178 | CCO[C@@H]1C[C@H]2C(=O)NC3(CCCC3)C(=O)N(C)[C@@H](C(CC)CC)C(=O)N(C)[C@H](C(=O)N3CCCC3)CC(=O)N(C)[C@@H](C)C(=O)N[C@@H]([C@@H](C)CC)C(=O)N(C)CC(=O)N(C)[C@H]3C/C=C\CCN(C3=O)[C@@H](CC3CCCCC3)C(=O)N(C)CC(=O)N[C@@H](CCc3cc(F)c(C(F)(F)F)c(F)c3)C(=O)N2C1 [PP1435] | A (a compound having 10 or more and less than 20 is denoted as A) | A (a compound having 10 or more and less than 20 is denoted as A) |
| 47.4 | CCO[C@@H]1C[C@H]2C(=O)NC3(CCC3)C(=O)N(C)[C@@H](C(CC)CC)C(=O)N(C)[C@H](C(=O)N3CCCC3)CC(=O)N(C)[C@@H](C)C(=O)N[C@@H]([C@@H](C)CC)C(=O)N(C)CC(=O)N(C)[C@H]3C/C=C\CCN(C3=O)[C@@H](CC3CCC(F)(F)CC3)C(=O)N(C)CC(=O)N[C@@H](CCc3cc(F)c(C(F)(F)F)c(F)c3)C(=O)N2C1 [PP1436] | AA (a compound having 20 or more is denoted as AA) | A (a compound having 10 or more and less than 20 is denoted as A) |
| 220 | CCO[C@@H]1C[C@H]2C(=O)NC3(CCCC3)C(=O)N(C)[C@@H](C(CC)CC)C(=O)N(C)[C@H](C(=O)N3CCCC3)CC(=O)N(C)[C@@H](C)C(=O)N[C@@H]([C@@H](C)CC)C(=O)N(C)CC(=O)N(C)[C@H]3C/C=C\CCN(C3=O)[C@@H](CC3CCC(F)(F)CC3)C(=O)N(C)CC(=O)N[C@@H](CCc3cc(F)c(C(F)(F)F)c(F)c3)C(=O)N2C1 [PP1437] | A (a compound having 10 or more and less than 20 is denoted as A) | A (a compound having 10 or more and less than 20 is denoted as A) |
| 89.4 | CCO[C@@H]1C[C@H]2C(=O)NC3(CCC3)C(=O)N(C)[C@@H](C(CC)CC)C(=O)N(C)[C@H](C(=O)N3CCCC3)CC(=O)N(C)[C@@H](COC)C(=O)N[C@@H]([C@@H](C)CC)C(=O)N(C)CC(=O)N(C)[C@H]3C/C=C\CCN(C3=O)[C@@H](CC3CCCCC3)C(=O)N(C)CC(=O)N[C@@H](CCc3cc(F)c(C(F)(F)F)c(F)c3)C(=O)N2C1 [PP1438] | AA (a compound having 20 or more is denoted as AA) | A (a compound having 10 or more and less than 20 is denoted as A) |
| 87.3 | CCO[C@@H]1C[C@H]2C(=O)NC3(CCCC3)C(=O)N(C)[C@@H](C(CC)CC)C(=O)N(C)[C@H](C(=O)N3CCCC3)CC(=O)N(C)[C@@H](COC)C(=O)N[C@@H]([C@@H](C)CC)C(=O)N(C)CC(=O)N(C)[C@H]3C/C=C\CCN(C3=O)[C@@H](CC3CCCCC3)C(=O)N(C)CC(=O)N[C@@H](CCc3cc(F)c(C(F)(F)F)c(F)c3)C(=O)N2C1 [PP1439] | AA (a compound having 20 or more is denoted as AA) | A (a compound having 10 or more and less than 20 is denoted as A) |
| 69.7 | CCO[C@@H]1C[C@H]2C(=O)NC3(CCC3)C(=O)N(C)[C@@H](C(CC)CC)C(=O)N(C)[C@H](C(=O)N3CCCC3)CC(=O)N(C)[C@@H](COC)C(=O)N[C@@H]([C@@H](C)CC)C(=O)N(C)CC(=O)N(C)[C@H]3C/C=C\CCN(C3=O)[C@@H](CC3CCC(F)(F)CC3)C(=O)N(C)CC(=O)N[C@@H](CCc3cc(F)c(C(F)(F)F)c(F)c3)C(=O)N2C1 [PP1440] | AA (a compound having 20 or more is denoted as AA) | A (a compound having 10 or more and less than 20 is denoted as A) |
| 87.6 | CCO[C@@H]1C[C@H]2C(=O)NC3(CCCC3)C(=O)N(C)[C@@H](C(CC)CC)C(=O)N(C)[C@H](C(=O)N3CCCC3)CC(=O)N(C)[C@@H](COC)C(=O)N[C@@H]([C@@H](C)CC)C(=O)N(C)CC(=O)N(C)[C@H]3C/C=C\CCN(C3=O)[C@@H](CC3CCC(F)(F)CC3)C(=O)N(C)CC(=O)N[C@@H](CCc3cc(F)c(C(F)(F)F)c(F)c3)C(=O)N2C1 [PP1441] | A (a compound having 10 or more and less than 20 is denoted as A) | A (a compound having 10 or more and less than 20 is denoted as A) |
| 103 | CCO[C@@H]1C[C@H]2C(=O)NC3(CCC3)C(=O)N(C)[C@@H](C3CCCC3)C(=O)N(C)[C@H](C(=O)N3CCC3)CC(=O)N(C)[C@@H](CC)C(=O)N[C@@H]([C@@H](C)CC)C(=O)N(C)CC(=O)N(C)[C@H]3C/C=C\CCN(C3=O)[C@@H](CC3CCC(F)(F)CC3)C(=O)N(C)CC(=O)N[C@@H](CCc3cc(F)c(C(F)(F)F)c(F)c3)C(=O)N2C1 [PP1444] | A (a compound having 10 or more and less than 20 is denoted as A) | A (a compound having 10 or more and less than 20 is denoted as A) |
| 92.8 | CCO[C@@H]1C[C@H]2C(=O)NC3(CCC3)C(=O)N(C)[C@@H](C3CCCC3)C(=O)N(C)[C@H](C(=O)N3CCC3)CC(=O)N(C)[C@@H](CC)C(=O)N[C@@H]([C@@H](C)CC)C(=O)N(C)CC(=O)N(C)[C@H]3C/C=C\CCN(C3=O)[C@@H](CC3CCCCC3)C(=O)N(C)CC(=O)N[C@@H](CCc3cc(F)c(C(F)(F)F)c(F)c3)C(=O)N2C1 [PP1445] | A (a compound having 10 or more and less than 20 is denoted as A) | A (a compound having 10 or more and less than 20 is denoted as A) |
| 32 | CCO[C@@H]1C[C@H]2C(=O)NC3(CCC3)C(=O)N(C)[C@@H](C3CCCC3)C(=O)N(C)[C@H](C(=O)N(C)C)CC(=O)N(C)[C@@H](CC3CC3)C(=O)N[C@@H]([C@@H](C)CC)C(=O)N(C)CC(=O)N(C)[C@H]3C/C=C\CCN(C3=O)[C@@H](CC3CCCCC3)C(=O)N(C)CC(=O)N[C@@H](CCc3cc(F)c(C(F)(F)F)c(F)c3)C(=O)N2C1 [PP1446] | A (a compound having 10 or more and less than 20 is denoted as A) | A (a compound having 10 or more and less than 20 is denoted as A) |
| 18.2 | CCO[C@@H]1C[C@H]2C(=O)NC3(CCC3)C(=O)N(C)[C@@H](C3CCCC3)C(=O)N(C)[C@H](C(=O)N(C)C)CC(=O)N(C)[C@@H](CC3CCCC3)C(=O)N[C@@H]([C@@H](C)CC)C(=O)N(C)CC(=O)N(C)[C@H]3C/C=C\CCN(C3=O)[C@@H](CC3CCC(F)(F)CC3)C(=O)N(C)CC(=O)N[C@@H](CCc3cc(F)c(C(F)(F)F)c(F)c3)C(=O)N2C1 [PP1458] | A (a compound having 10 or more and less than 20 is denoted as A) | A (a compound having 10 or more and less than 20 is denoted as A) |
